{"source": "patent US12551484B2", "about": "“Methods of treatment and/or prevention of major adverse cardiovascular events (MACE) with a combination of a BET bromodomain inhibitor and a sodium dependent glucose transport 2 inhibitor” (Resverlogix Corp., priority 2019, dated 2026)", "key": {"type 2 diabetes patients [1]": {"system": "type 2 diabetes patients", "conditions": "human, in vivo; cited from earlier work"}, "[2]": {"system": "type 2 diabetes patients with low HDL cholesterol and a recent acute coronary syndrome (ACS)", "test": "BETonMACE Phase 3 trial (NCT02586155), post-hoc analysis by SGLT2 inhibitor use", "procedure": "All patients received high intensity statin treatment as well as other evidence-based treatments.\nPatients (n=2425) with ACS in the preceding 7 to 90 days, with type 2 diabetes and low HDL cholesterol (≤40 mg/dl for men, 45 mg/dl for women), receiving intensive or maximum-tolerated therapy with atorvastatin or rosuvastatin, were assigned in double-blind fashion to receive apabetalone 100 mg orally twice daily or matching placebo. […] The primary efficacy measure is time to first occurrence of cardiovascular death, non-fatal myocardial infarction, or stroke.\nThose patients who received at least one dose of SGLT2 treatment after the date of the first incidence of event were censored as non-MACE events and the date of last contact was used as the censoring date.\nThe distributions of the endpoints within the apabetalone and placebo groups were compared using a two-sided log-rank test (LRT) with an alpha=0.05 level of significance. The cumulative incidence is shown as 1-KM (Kaplan-Meier) estimate for event rate."}, "type 2 diabetes patients [3]": {"system": "type 2 diabetes patients", "conditions": "cited from earlier work"}, "[4]": {"conditions": "cardiovascular death, non-fatal myocardial infarction, or stroke, FIGS. 1-2"}, "[5]": {"conditions": "patients not treated with SGLT2 inhibitor, vs placebo (FIG. 2)"}, "[6]": {"conditions": "patients not treated with SGLT2 inhibitor, vs placebo (FIG. 5)"}, "[7]": {"conditions": "patients not treated with SGLT2 inhibitor, vs placebo (FIG. 8)"}, "[8]": {"conditions": "patients not treated with SGLT2 inhibitor, vs placebo (FIG. 11)"}, "[9]": {"conditions": "patients not treated with SGLT2 inhibitor, vs placebo (FIG. 14)"}, "[10]": {"conditions": "patients not treated with SGLT2 inhibitor, vs placebo (FIG. 17)"}}, "note": "Read-outs that look alike come from different tables or passages of the source.", "data": [{"compound": "Cc1ccc([C@@H]2O[C@H](CO)[C@@H](O)[C@H](O)[C@H]2O)cc1Cc1ccc(-c2ccc(F)cc2)s1", "note": "[Canaglifozin, canagliflozin]", "values": [{"measurement": "HR, narrowly defined MACE", "setting": "type 2 diabetes patients [1]", "value": 0.86}, {"measurement": "reduction of narrowly defined MACE", "setting": "type 2 diabetes patients [1]", "value": 14, "unit": "%"}, {"measurement": "reductions in the individual MACE events", "setting": "type 2 diabetes patients [1]", "value": "did not reach statistical significance"}]}, {"compound": "COc1cc(OC)c2c(=O)[nH]c(-c3cc(C)c(OCCO)c(C)c3)nc2c1", "note": "[apabetalone, 2-(4-(2-hydroxyethoxy)-3,5-dimethylphenyl)-5,7-dimethoxyquinazolin-4(3H)-one]", "values": [{"measurement": "Kaplan-Meier estimated event rate, narrowly defined MACE", "setting": "[2]; at 18 months, FIGS. 1-2", "value": 8.0, "unit": "%"}, {"measurement": "primary end points (narrowly defined MACE), number in group", "setting": "[2]; [4]", "value": 111}, {"measurement": "primary end points (narrowly defined MACE), percent of group", "setting": "[2]; [4]", "value": 10.5, "unit": "%"}, {"measurement": "Hazard Ratio [HR], narrowly defined MACE", "setting": "[2]; [5]", "value": 0.84}, {"measurement": "reduction of number of patients having a narrowly defined MACE event at any given time", "setting": "[2]; [5]", "value": 16, "unit": "%"}, {"measurement": "Hazard Ratio [HR], broadly defined MACE", "setting": "[2]; [6]", "value": 0.87}, {"measurement": "reduction of number of patients having a broadly defined MACE event at any given time", "setting": "[2]; [6]", "value": 13, "unit": "%"}, {"measurement": "Hazard Ratio [HR], non-fatal myocardial infarction", "setting": "[2]; [7]", "value": 0.85}, {"measurement": "reduction of number of patients having a non-fatal myocardial infarction event at any given time", "setting": "[2]; [7]", "value": 15, "unit": "%"}, {"measurement": "Hazard Ratio [HR], cardiovascular death", "setting": "[2]; [8]", "value": 0.84}, {"measurement": "reduction of number of patients having a cardiovascular death event at any given time", "setting": "[2]; [8]", "value": 16, "unit": "%"}, {"measurement": "Hazard Ratio [HR], hospitalization for cardiovascular diseases", "setting": "[2]; [9]", "value": 0.87}, {"measurement": "reduction of number of patients having a hospitalization for cardiovascular diseases event at any given time", "setting": "[2]; [9]", "value": 13, "unit": "%"}, {"measurement": "Hazard Ratio [HR], hospitalization for congestive heart failure", "setting": "[2]; [10]", "value": 0.61}, {"measurement": "reduction of number of patients having a hospitalization for congestive heart failure event at any given time", "setting": "[2]; [10]", "value": 39, "unit": "%"}]}, {"compound": "OC[C@H]1O[C@@H](c2ccc(Cl)c(Cc3ccc(O[C@H]4CCOC4)cc3)c2)[C@H](O)[C@@H](O)[C@@H]1O", "note": "[empaglifozin, empagliflozin]", "values": [{"measurement": "HR, broadly defined MACE", "setting": "type 2 diabetes patients [3]; human, in vivo", "value": 0.89}, {"measurement": "HR, cardiovascular deaths", "setting": "type 2 diabetes patients [3]; human, in vivo", "value": 0.62}, {"measurement": "Hazard Ratio [HR], narrowly defined MACE", "setting": "type 2 diabetes patients [3]; human, in vivo", "value": 0.86}, {"measurement": "reduction of broadly defined MACE", "setting": "type 2 diabetes patients [3]; human, in vivo", "value": 11, "unit": "%"}, {"measurement": "reduction of narrowly defined MACE", "setting": "type 2 diabetes patients [3]; human, in vivo", "value": 14, "unit": "%"}, {"measurement": "HR, individual MACE events", "setting": "type 2 diabetes patients [3]; with the exception of cardiovascular deaths, did not show any reduction", "value": 1.0}]}]}
